Laboratory results: US7771977B2, “Alkane polyol dehydrogenase” (National University Corporation Nara Institute of Science …, priority 2006, dated 2010)
Where two headings read alike, the source gives them in different places.

How the values were obtained:
[1] = test system: alkane polyol dehydrogenase (purified enzyme); assay type: biochemical, Pichia ofunaensis
Description: (§1) The reaction solutions were prepared using plural substrates with varied concentrations. Each solution contained a substrate, 2 mM NAD^+, and an enzyme, and was allowed to react in a 100 mM potassium phosphate buffer solution (pH 8.0) at 25° C. Then, changes in absorbance (molar absorption coefficient 6,220 M^−1·cm^−1) at 340 nm due to the NADH formation were measured. 1 U is defined as an enzyme amount for catalyzing 1 μmol NADH formation per minute.
(§2) The alkane polyol dehydrogenase obtained in Example 1 was utilized to measure the enzyme activities in the following manner.
1 U was defined as the amount of enzyme that catalyzes the formation of 1 μmol of NADH per minute.
Measurement was performed in the same manner as in the activity measurements described earlier in 4-1.
Such activity was measured by causing a reaction mixture containing 5 mM (R)-1,2-octanediol, 2 mM NAD^+ and enzyme to react in a 100 mM potassium phosphate buffer solution (pH 8.0) at 25° C., then observing the change, due to NADH formation, of absorbance (molecular absorption coefficient 6,220 M^−1 ·cm^−1) at 340 nm. 1 U was defined as the amount of enzyme that catalyzes the formation of 1 μmol of NADH per minute.

[2] = test system: alkane polyol dehydrogenase (purified enzyme); experiment: Reduction activity measurement with purified alkane polyol dehydrogenase (NADH reduction at 340 nm); assay type: biochemical, Pichia ofunaensis; conditions: for Reduction Activity: 0.2 mM NADH, pH 6.0, 25° C.; for reduction activity of the purified enzyme, in words: Table 3
Description: as §1, with “substrate, 0.2” for “substrate, 2”, “mM NADH,” for “mM NAD^+,”, “(pH 6.0)” for “(pH 8.0)”, “NADH reduction” for “NADH formation”, “per minutes.” for “per minute.”
as §2
1 U was defined as the amount of enzyme that catalyzes the reduction of 1 μmol of NADH per minute.

[3] = purified enzyme, Tables 2 and 4
[4] = purified enzyme, substrate 100 mM, 2 mM NAD+, pH 8.0, 25° C.

SMILES: CC(O)CCC(C)O (centres unmarked) [2,5-Hexanediol]
- oxidative (dehydrogenation) activity of the purified enzyme, in words [1, 3]: only a weak oxidative activity
- Oxidative Activity [1, 4]: 0.77 U/mg

SMILES: CC(O)CC(C)O (centres unmarked) [2,4-Pentanediol]
- oxidative (dehydrogenation) activity of the purified enzyme, in words [1, 3]: only a weak oxidative activity
- Oxidative Activity [1, 4]: 2.53 U/mg

SMILES: OCc1ccccc1 [Benzyl alcohol]
- oxidative (dehydrogenation) activity of the purified enzyme, in words [1, 3]: did not have oxidative activity

SMILES: CCCCO [1-Butanol]
- oxidative (dehydrogenation) activity of the purified enzyme, in words [1]: did not have oxidative activity

SMILES: CCCCCCC(C)O (centres unmarked) [2-Octanol]
- oxidative (dehydrogenation) activity of the purified enzyme, in words [1, 3]: no activity was observed

SMILES: CCC(C)=O [2-Butanone]
- Reduction Activity ([2]; substrate 100 mM): 0.40 U/mg

SMILES: CCCCCC(O)CO (centres unmarked) [1,2-Heptanediol]
- oxidative (dehydrogenation) activity of the purified enzyme, in words [1, 3]: well-oxidized
- Oxidative Activity ([1]; purified enzyme, substrate 10 mM, 2 mM NAD+, pH 8.0, 25° C.): 27.8 U/mg

SMILES: CCCCCC[C@@H](O)CO [(R)-1,2-octanediol]
- (R)-1,2-octanediol dehydrogenase activity per 1 mg of the purified protein ([1]; per 1 mg purified protein, 5 mM substrate, 2 mM NAD+, pH 8.0, 25° C.): ≥ 60 U

SMILES: CO [Methanol]
- oxidative (dehydrogenation) activity of the purified enzyme, in words [1, 3]: did not have oxidative activity

SMILES: CCCC(=O)CC [3-Hexanone]
- Reduction Activity ([2]; substrate 10 mM): 1.39 U/mg

SMILES: CCCCCO [1-Pentanol]
- oxidative (dehydrogenation) activity of the purified enzyme, in words [1, 3]: did not have oxidative activity

SMILES: CCCO [1-Propanol]
- oxidative (dehydrogenation) activity of the purified enzyme, in words [1]: did not have oxidative activity

SMILES: CCCC(O)CO (centres unmarked) [1,2-Pentanediol]
- oxidative (dehydrogenation) activity of the purified enzyme, in words [1, 3]: well-oxidized
- Oxidative Activity [1, 4]: 99.3 U/mg

SMILES: CCCC(=O)C(C)=O [2,3-Hexanedione]
- reduction activity of the purified enzyme, in words [2]: high reduction activity
- Reduction Activity ([2]; substrate 5 mM): 67.5 U/mg

SMILES: CC(=O)CO [Acetol]
- reduction activity of the purified enzyme, in words [2]: high reduction activity
- Reduction Activity ([2]; substrate 100 mM): 64.9 U/mg

SMILES: O=C1CCCCC1 [Cyclohexanone]
- Reduction Activity ([2]; substrate 10 mM): 0.28 U/mg

SMILES: CC(C)O [Isopropanol]
- oxidative (dehydrogenation) activity of the purified enzyme, in words [1, 3]: weak oxidative activity
- Oxidative Activity [1, 4]: 1.45 U/mg

SMILES: CCC(C)O (centres unmarked) [2-Butanol]
- oxidative (dehydrogenation) activity of the purified enzyme, in words [1]: weak oxidative activity
- Oxidative Activity ([1]; pH 8): <0.1 U/mg

SMILES: CCCCCC(C)O (centres unmarked) [2-Heptanol]
- oxidative (dehydrogenation) activity of the purified enzyme, in words [1, 3]: no activity was observed

SMILES: CC(=O)C(C)O (centres unmarked) [3-Hydroxy-2-butanone]
- Oxidative Activity [1, 4]: 0.55 U/mg
- reduction activity of the purified enzyme, in words [2]: high reduction activity
- Reduction Activity ([2]; substrate 100 mM): 102 U/mg

SMILES: CCCCCCO [n-Hexanol]
- oxidative (dehydrogenation) activity of the purified enzyme, in words [1, 3]: did not have oxidative activity

SMILES: CCO [Ethanol]
- oxidative (dehydrogenation) activity of the purified enzyme, in words [1]: did not have oxidative activity

SMILES: CCC(=O)CO [1-Hydroxy-2-butanone]
- Reduction Activity ([2]; substrate 100 mM): 5.84 U/mg

SMILES: CCCC(C)=O [2-Pentanone]
- Reduction Activity ([2]; substrate 100 mM): 3.71 U/mg

SMILES: CCCCC(O)CO (centres unmarked) [1,2-Hexanediol]
- oxidative (dehydrogenation) activity of the purified enzyme, in words [1, 3]: well-oxidized
- Oxidative Activity [1, 4]: 38.4 U/mg

SMILES: CCC(O)CO (centres unmarked) [1,2-Butanediol]
- oxidative (dehydrogenation) activity of the purified enzyme, in words [1, 3]: well-oxidized
- Oxidative Activity [1, 4]: 61.0 U/mg

SMILES: CCC(=O)C(=O)CC [3,4-Hexanedione]
- reduction activity of the purified enzyme, in words [2]: high reduction activity
- Reduction Activity ([2]; substrate 5 mM): 32.8 U/mg

SMILES: CC(O)CCO (centres unmarked) [1,3-Butanediol]
- oxidative (dehydrogenation) activity of the purified enzyme, in words [1, 3]: only a weak oxidative activity
- Oxidative Activity [1, 4]: 6.0 U/mg

SMILES: CCC(=O)C(C)=O [2,3-Pentanedione]
- reduction activity of the purified enzyme, in words [2]: high reduction activity
- Reduction Activity ([2]; substrate 5 mM): 73.8 U/mg
